In patent publication US11214803B2, “Modulators of YAP1 expression” (Ionis Pharmaceuticals, Inc., priority 2019, dated 2022):
Strand notation (5' to 3'): a small letter for the sugar, then the base; units joined by * are phosphorothioate-linked, units joined directly phosphodiester-linked; [ ] holds rarer units or linkages, { } end groups; capitals alone tell only the bases. k = constrained ethyl (cEt); [5mC] = 5-methylcytosine; d = 2'-deoxy (DNA)

Test system: Yap1 mRNA
Experiment: Dose-dependent inhibition of human Yap1 in A-431 cells (Example 6, 5,000 cells per well, RTS4814)
Format: cell-based
Details: for Yap1 mRNA, % UTC: 48 hours; for % UTC 148 nM / % UTC 444 nM / % UTC 1333 nM / % UTC 4000 nM: approximately 48 hours
Description: Modified oligonucleotides described in the studies above were tested at various doses in A-431 cells. Cultured A-431 cells at a density of 5,000 cells per well were treated using free uptake with modified oligonucleotides diluted to concentrations described in the tables below. After approximately 48 hours, Yap1 mRNA levels were measured as previously described using the Human Yap1 primer-probe set RTS4814. Yap1 mRNA levels were normalized to total RNA content, as measured by RIBOGREEN®. Results are presented in the tables below as percent control of the amount of Yap1 mRNA relative to untreated control cells (% UTC). IC50s were calculated using a linear regression on a log/linear plot of the data in excel.

[1] = Table 55, 148 nM, free uptake, A-431 cells 5,000 cells per well, RTS4814
[2] = Table 55, 444 nM, free uptake, A-431 cells 5,000 cells per well, RTS4814
[3] = Table 55, 1333 nM, free uptake, A-431 cells 5,000 cells per well, RTS4814
[4] = Table 55, 4000 nM, free uptake, A-431 cells 5,000 cells per well, RTS4814
[5] = Table 55, A-431 cells 5,000 cells per well, free uptake, RTS4814
[6] = Table 53, A-431 cells, Yap1 mRNA, linear regression on a log/linear plot
[7] = Table 53, A-431 cells, free uptake, 148 nM, RTS4814
[8] = Table 53, A-431 cells, free uptake, 444 nM, RTS4814
[9] = Table 53, A-431 cells, free uptake, 1333 nM, RTS4814
[10] = Table 53, A-431 cells, free uptake, 4000 nM, RTS4814
[11] = Table 54, A-431 cells, Yap1 mRNA, linear regression on a log/linear plot
[12] = Table 54, A-431 cells, free uptake, 148 nM, RTS4814
[13] = Table 54, A-431 cells, free uptake, 444 nM, RTS4814
[14] = Table 54, A-431 cells, free uptake, 1333 nM, RTS4814
[15] = Table 54, A-431 cells, free uptake, 4000 nM, RTS4814

Row | Substance | Yap1 mRNA, % UTC [1] | Yap1 mRNA, % UTC [2] | Yap1 mRNA, % UTC [3] | Yap1 mRNA, % UTC [4] | IC50 [5] | IC50 [6] | % UTC 148 nM [7] | % UTC 444 nM [8] | % UTC 1333 nM [9] | % UTC 4000 nM [10] | IC50 [11] | % UTC 148 nM [12] | % UTC 444 nM [13] | % UTC 1333 nM [14] | % UTC 4000 nM [15]
1 | 716548 (antisense kG*kA*kG*dT*dT*dT*d[5mC]*dA*dA*d[5mC]*dA*d[5mC]*dT*kG*kA*kT) [compound 716548] | 99 % UTC | 89 % UTC | 79 % UTC | 67 % UTC | > 4 µM | – | – | – | – | – | – | – | – | – | –
2 | 715577 (kG*k[5mC]*kA*dT*dT*d[5mC]*dA*d[5mC]*dA*dG*dA*dG*dT*kT*kA*kA; antisense) [compound 715577] | – | – | – | – | – | > 4 µM | 87 % UTC | 76 % UTC | 73 % UTC | 45 % UTC | – | – | – | – | –
3 | 716496 (antisense kG*kA*kA*dG*dA*dG*dA*dT*dT*dT*dT*dA*dT*kG*k[5mC]*k[5mC]) [compound 716496] | – | – | – | – | – | – | – | – | – | – | > 4 µM | 74 % UTC | 87 % UTC | 64 % UTC | 49 % UTC
4 | 716524 (antisense kA*k[5mC]*kT*dG*dA*dG*dG*dT*dA*dT*dA*dA*d[5mC]*kT*kG*kG) [compound 716524] | 103 % UTC | 92 % UTC | 96 % UTC | 62 % UTC | > 4 µM | – | – | – | – | – | – | – | – | – | –
5 | 716577 (antisense kT*k[5mC]*kT*dG*dT*d[5mC]*dA*dG*dT*dT*dA*dT*d[5mC]*k[5mC]*kT*kA) [compound 716577] | – | – | – | – | – | – | – | – | – | – | > 4 µM | 109 % UTC | 93 % UTC | 79 % UTC | 60 % UTC
6 | 716407 (antisense k[5mC]*kT*kT*dA*dG*dT*d[5mC]*d[5mC]*dA*d[5mC]*dT*dG*dT*k[5mC]*kT*kG) [compound 716407] | 84 % UTC | 75 % UTC | 72 % UTC | 39 % UTC | 3 µM | – | – | – | – | – | – | – | – | – | –
7 | 715471 (kT*kA*kT*d[5mC]*dT*dA*dG*d[5mC]*dT*dT*dG*dG*dT*kG*kG*k[5mC]; antisense) [compound 715471] | – | – | – | – | – | – | – | – | – | – | > 4 µM | 82 % UTC | 103 % UTC | 105 % UTC | 79 % UTC
8 | 715478 (kA*k[5mC]*k[5mC]*dA*dT*dT*dA*dT*dT*dA*d[5mC]*dT*d[5mC]*k[5mC]*kT*kG; antisense) [compound 715478] | 76 % UTC | 56 % UTC | 32 % UTC | 18 % UTC | 0.6 µM | 0.4 µM | 70 % UTC | 47 % UTC | 29 % UTC | 16 % UTC | 0.6 µM | 72 % UTC | 59 % UTC | 31 % UTC | 18 % UTC
9 | 716503 (antisense kT*kT*kA*dT*dT*dA*dT*dG*dA*dG*dT*dG*dA*kT*k[5mC]*kA) [compound 716503] | 91 % UTC | 80 % UTC | 67 % UTC | 64 % UTC | > 4 µM | – | – | – | – | – | – | – | – | – | –
10 | 716370 (k[5mC]*kA*kG*dT*dG*d[5mC]*d[5mC]*dT*dG*d[5mC]*dA*dT*d[5mC]*kA*kG*kT; antisense) [compound 716370] | – | – | – | – | – | – | – | – | – | – | > 4 µM | 81 % UTC | 79 % UTC | 69 % UTC | 49 % UTC
11 | 716387 (antisense kT*kA*kT*dG*dG*dT*dT*dT*dA*dT*dA*dT*dA*kG*kT*kA) [compound 716387] | 94 % UTC | 94 % UTC | 80 % UTC | 67 % UTC | > 4 µM | – | – | – | – | – | – | – | – | – | –
12 | 716438 (antisense kA*kT*kT*dT*dT*dT*dG*dG*d[5mC]*dT*dT*dG*dT*k[5mC]*kA*kG) [compound 716438] | 93 % UTC | 75 % UTC | 62 % UTC | 49 % UTC | 3.4 µM | – | – | – | – | – | – | – | – | – | –
13 | 715423 (k[5mC]*k[5mC]*kA*dT*dG*dT*dT*dG*dT*dT*dG*dT*d[5mC]*kT*kG*kA; antisense) [compound 715423] | – | – | – | – | – | > 4 µM | 83 % UTC | 91 % UTC | 80 % UTC | 57 % UTC | – | – | – | – | –
14 | 716469 (antisense kG*kT*kT*dT*dG*d[5mC]*dT*d[5mC]*d[5mC]*dT*dT*dT*d[5mC]*k[5mC]*kA*kA) [compound 716469] | – | – | – | – | – | – | – | – | – | – | > 4 µM | 71 % UTC | 78 % UTC | 89 % UTC | 39 % UTC
15 | 716479 (antisense kG*kA*kA*d[5mC]*dA*dA*dT*d[5mC]*dT*dT*dG*dA*dA*kG*kG*k[5mC]) [compound 716479] | 88 % UTC | 78 % UTC | 55 % UTC | 57 % UTC | > 4 µM | – | – | – | – | – | – | – | – | – | –
16 | 715555 (kG*kT*kT*dA*dT*dT*d[5mC]*dA*dG*d[5mC]*dA*dG*d[5mC]*kT*kT*kA; antisense) [compound 715555] | – | – | – | – | – | 2.5 µM | 93 % UTC | 71 % UTC | 63 % UTC | 42 % UTC | – | – | – | – | –
17 | 715486 (kT*kA*k[5mC]*dT*dT*d[5mC]*dA*dT*dA*dG*d[5mC]*dT*dT*kA*kT*kA; antisense) [compound 715486] | – | – | – | – | – | > 4 µM | 93 % UTC | 89 % UTC | 81 % UTC | 56 % UTC | – | – | – | – | –
18 | 716505 (antisense kG*kA*kT*dT*dT*dA*dA*dT*d[5mC]*dT*dT*dT*d[5mC]*kT*kG*k[5mC]) [compound 716505] | – | – | – | – | – | – | – | – | – | – | > 4 µM | 83 % UTC | 103 % UTC | 82 % UTC | 66 % UTC
19 | 716376 (k[5mC]*kG*kA*dA*dG*dA*dT*dG*d[5mC]*dT*dG*dA*dG*k[5mC]*kT*kG; antisense) [compound 716376] | – | – | – | – | – | – | – | – | – | – | > 4 µM | 103 % UTC | 94 % UTC | 79 % UTC | 50 % UTC
20 | 715433 (kT*kG*kT*dT*d[5mC]*dT*dT*dA*dT*dG*dG*dT*dT*kT*kA*kT; antisense) [compound 715433] | – | – | – | – | – | 2.5 µM | 87 % UTC | 72 % UTC | 65 % UTC | 40 % UTC | – | – | – | – | –
21 | 716493 (antisense kA*k[5mC]*kA*dT*dT*dG*dA*dA*dA*dG*dA*d[5mC]*d[5mC]*k[5mC]*kT*kT) [compound 716493] | – | – | – | – | – | – | – | – | – | – | > 4 µM | 95 % UTC | 97 % UTC | 86 % UTC | 72 % UTC
22 | 716489 (antisense kA*kG*kT*dT*dA*dA*dT*dT*d[5mC]*dA*dT*dG*d[5mC]*kT*k[5mC]*kG) [compound 716489] | 84 % UTC | 83 % UTC | 69 % UTC | 61 % UTC | > 4 µM | – | – | – | – | – | – | – | – | – | –
23 | 715434 (kT*k[5mC]*kT*dT*dG*dT*dT*d[5mC]*dT*dT*dA*dT*dG*kG*kT*kT; antisense) [compound 715434] | – | – | – | – | – | 2.8 µM | 84 % UTC | 69 % UTC | 64 % UTC | 43 % UTC | – | – | – | – | –
24 | 716445 (antisense kG*kT*kA*dT*dG*dT*dG*dG*d[5mC]*dA*dA*dT*dA*kA*kT*kT) [compound 716445] | – | – | – | – | – | – | – | – | – | – | 2.6 µM | 89 % UTC | 82 % UTC | 56 % UTC | 44 % UTC
25 | 715500 (kA*kA*kG*d[5mC]*d[5mC]*dT*dT*dA*dG*dA*dG*dT*d[5mC]*kA*kA*kT; antisense) [compound 715500] | – | – | – | – | – | 3.6 µM | 97 % UTC | 72 % UTC | 67 % UTC | 48 % UTC | – | – | – | – | –
26 | 716501 (antisense kG*k[5mC]*kA*d[5mC]*dT*dG*dA*dA*dA*dG*dT*dA*d[5mC]*kT*kT*kA) [compound 716501] | 91 % UTC | 69 % UTC | 66 % UTC | 55 % UTC | > 4 µM | – | – | – | – | – | – | – | – | – | –
27 | 715414 (kA*kA*k[5mC]*dA*dT*dG*d[5mC]*dT*dG*dT*dG*dG*dA*kG*kT*k[5mC]; antisense) [compound 715414] | – | – | – | – | – | – | – | – | – | – | > 4 µM | 91 % UTC | 91 % UTC | 102 % UTC | 67 % UTC
